# According to ChEMBL document CHEMBL1201862, “PubChem BioAssay data set” (2004):
#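 Assay format: 96-well plates, 48-hour exposure. GI50 marks 50% less growth.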 Active and inactive are the calls of the source. Cut-off read from the data, not from the text of the source: active = GI50 up to about 1.1 µM and inactive = higher.
# Legend:
# Test in all cases: NCI anticancer screen, dose series, 48 h
# 786-0 = system: 786-0
# A498 = system: A498
# A549 = system: A549
# ACHN = system: ACHN
# CAKI-1 = system: CAKI-1
# CCRF-CEM = system: CCRF-CEM
# COLO 205 = system: COLO 205
# DLD-1 = system: DLD-1
# DMS-114 = system: DMS-114
# DMS-273 = system: DMS-273
# EKVX = system: EKVX
# HCC 2998 = system: HCC 2998
# HCT-116 = system: HCT-116
# HCT-15 = system: HCT-15
# HL-60 = system: HL-60
# HOP-18 = system: HOP-18
# HOP-62 = system: HOP-62
# HOP-92 = system: HOP-92
# HT-29 = system: HT-29
# IGROV-1 = system: IGROV-1
# K562 = system: K562
# KM-20L2 = system: KM-20L2
# KM12 = system: KM12
# LOX IMVI = system: LOX IMVI
# LXFL 529 = system: LXFL 529
# M14 = system: M14
# M19-MEL = system: M19-MEL
# MOLT-4 = system: MOLT-4
# Malme-3M = system: Malme-3M
# NCI-H226 = system: NCI-H226
# NCI-H23 = system: NCI-H23
# NCI-H460 = system: NCI-H460
# NCI-H522 = system: NCI-H522
# OVCAR-3 = system: OVCAR-3
# OVCAR-4 = system: OVCAR-4
# OVCAR-5 = system: OVCAR-5
# OVCAR-8 = system: OVCAR-8
# RPMI-8226 = system: RPMI-8226
# RXF 393 = system: RXF 393
# SF-268 = system: SF-268
# SF-295 = system: SF-295
# SF-539 = system: SF-539
# SK-MEL-28 = system: SK-MEL-28
# SK-MEL-2 = system: SK-MEL-2
# SK-MEL-5 = system: SK-MEL-5
# SK-OV-3 = system: SK-OV-3
# SN12C = system: SN12C
# SNB-19 = system: SNB-19
# SNB-75 = system: SNB-75
# SNB-78 = system: SNB-78
# SR = system: SR
# SW-620 = system: SW-620
# TK-10 = system: TK-10
# U-251 = system: U-251
# UACC-257 = system: UACC-257
# UACC-62 = system: UACC-62
# UO-31 = system: UO-31
# XF498 = system: XF498
# RXF 631 = system: RXF 631
smiles,measurement,setting,value
CCOC(=N)CC(=O)Nc1ccccc1,GI50,786-0,> 46.5 µM (inactive)
same,GI50,A498,> 46.5 µM (inactive)
same,GI50,A549,> 46.5 µM (inactive)
same,GI50,ACHN,> 46.5 µM (inactive)
same,GI50,CAKI-1,> 100 µM (inactive)
same,GI50,CCRF-CEM,19.4 µM (inactive)
same,GI50,COLO 205,> 46.5 µM (inactive)
same,GI50,DLD-1,> 46.5 µM (inactive)
same,GI50,DMS-114,35.8 µM (inactive)
same,GI50,DMS-273,> 46.5 µM (inactive)
same,GI50,EKVX,> 100 µM (inactive)
same,GI50,HCC 2998,> 31.6 µM (inactive)
same,GI50,HCT-116,> 46.5 µM (inactive)
same,GI50,HCT-15,32.8 µM
same,GI50,HL-60,> 100 µM (inactive)
same,GI50,HOP-18,> 31.6 µM (inactive)
same,GI50,HOP-62,> 46.5 µM (inactive)
same,GI50,HOP-92,> 10 µM (inactive)
same,GI50,HT-29,> 46.5 µM (inactive)
same,GI50,IGROV-1,> 46.5 µM (inactive)
same,GI50,K562,22.1 µM (inactive)
same,GI50,KM-20L2,> 100 µM (inactive)
same,GI50,KM12,> 46.5 µM (inactive)
same,GI50,LOX IMVI,47.5 µM (inactive)
same,GI50,LXFL 529,> 46.5 µM (inactive)
same,GI50,M14,> 46.5 µM (inactive)
same,GI50,M19-MEL,> 46.5 µM (inactive)
same,GI50,MOLT-4,> 31.6 µM (inactive)
same,GI50,Malme-3M,> 46.5 µM (inactive)
same,GI50,NCI-H226,> 31.6 µM (inactive)
same,GI50,NCI-H23,> 46.5 µM (inactive)
same,GI50,NCI-H460,> 46.5 µM (inactive)
same,GI50,NCI-H522,> 100 µM (inactive)
same,GI50,OVCAR-3,> 31.6 µM (inactive)
same,GI50,OVCAR-4,34.5 µM (inactive)
same,GI50,OVCAR-5,> 100 µM (inactive)
same,GI50,OVCAR-8,> 21.5 µM (inactive)
same,GI50,RPMI-8226,15.9 µM (inactive)
same,GI50,RXF 393,> 46.5 µM (inactive)
same,GI50,SF-268,> 46.5 µM (inactive)
same,GI50,SF-295,> 100 µM (inactive)
same,GI50,SF-539,> 46.5 µM (inactive)
same,GI50,SK-MEL-28,> 46.5 µM (inactive)
same,GI50,SK-MEL-2,> 31.6 µM (inactive)
same,GI50,SK-MEL-5,> 46.5 µM (inactive)
same,GI50,SK-OV-3,> 100 µM (inactive)
same,GI50,SN12C,> 46.5 µM (inactive)
same,GI50,SNB-19,> 100 µM (inactive)
same,GI50,SNB-75,> 46.5 µM (inactive)
same,GI50,SNB-78,> 46.5 µM (inactive)
same,GI50,SR,> 39.9 µM (inactive)
same,GI50,SW-620,36.9 µM (inactive)
same,GI50,TK-10,> 46.5 µM (inactive)
same,GI50,U-251,> 100 µM (inactive)
same,GI50,UACC-257,> 46.5 µM (inactive)
same,GI50,UACC-62,> 100 µM (inactive)
same,GI50,UO-31,> 46.5 µM (inactive)
same,GI50,XF498,> 43.9 µM (inactive)
N=C1N(c2ccccc2)C(=O)C23CCCC2C13N1CCOCC1 (stereo not drawn),GI50,786-0,> 100 µM (inactive)
same,GI50,A549,> 100 µM (inactive)
same,GI50,ACHN,> 100 µM (inactive)
same,GI50,CAKI-1,> 100 µM (inactive)
same,GI50,CCRF-CEM,> 100 µM (inactive)
same,GI50,COLO 205,> 100 µM (inactive)
same,GI50,DLD-1,> 100 µM (inactive)
same,GI50,DMS-114,> 100 µM (inactive)
same,GI50,DMS-273,> 100 µM (inactive)
same,GI50,EKVX,> 100 µM (inactive)
same,GI50,HCC 2998,> 100 µM (inactive)
same,GI50,HCT-116,> 100 µM (inactive)
same,GI50,HCT-15,> 100 µM
same,GI50,HL-60,> 100 µM (inactive)
same,GI50,HOP-18,> 100 µM (inactive)
same,GI50,HOP-62,> 100 µM (inactive)
same,GI50,HOP-92,> 100 µM (inactive)
same,GI50,HT-29,> 100 µM (inactive)
same,GI50,IGROV-1,> 100 µM (inactive)
same,GI50,K562,> 100 µM (inactive)
same,GI50,KM-20L2,> 100 µM (inactive)
same,GI50,KM12,> 100 µM (inactive)
same,GI50,LXFL 529,> 100 µM (inactive)
same,GI50,M14,> 100 µM (inactive)
same,GI50,M19-MEL,> 100 µM (inactive)
same,GI50,MOLT-4,> 100 µM (inactive)
same,GI50,Malme-3M,> 100 µM (inactive)
same,GI50,NCI-H226,> 100 µM (inactive)
same,GI50,NCI-H23,> 100 µM (inactive)
same,GI50,NCI-H460,> 100 µM (inactive)
same,GI50,NCI-H522,> 100 µM (inactive)
same,GI50,OVCAR-3,> 100 µM (inactive)
same,GI50,OVCAR-4,> 100 µM (inactive)
same,GI50,OVCAR-5,> 100 µM (inactive)
same,GI50,OVCAR-8,> 100 µM (inactive)
same,GI50,RPMI-8226,> 100 µM (inactive)
same,GI50,RXF 393,> 100 µM (inactive)
same,GI50,RXF 631,> 100 µM (inactive)
same,GI50,SF-268,> 100 µM (inactive)
same,GI50,SF-295,> 100 µM (inactive)
same,GI50,SF-539,> 100 µM (inactive)
same,GI50,SK-MEL-28,> 100 µM (inactive)
same,GI50,SK-MEL-2,> 100 µM (inactive)
same,GI50,SK-MEL-5,> 100 µM (inactive)
same,GI50,SK-OV-3,> 100 µM (inactive)
same,GI50,SN12C,> 100 µM (inactive)
same,GI50,SNB-19,> 100 µM (inactive)
same,GI50,SNB-75,> 100 µM (inactive)
same,GI50,SNB-78,> 100 µM (inactive)
same,GI50,SR,> 100 µM (inactive)
same,GI50,SW-620,> 100 µM (inactive)
same,GI50,U-251,> 100 µM (inactive)
same,GI50,UACC-257,> 100 µM (inactive)
same,GI50,UACC-62,> 100 µM (inactive)
same,GI50,UO-31,> 100 µM (inactive)
Cc1c2n(c3ccccc13)CC1CON(C)C21 (stereo not drawn),GI50,786-0,> 100 µM (inactive)
same,GI50,CAKI-1,> 100 µM (inactive)
same,GI50,CCRF-CEM,> 100 µM (inactive)
same,GI50,COLO 205,> 100 µM (inactive)
same,GI50,DLD-1,> 100 µM (inactive)
same,GI50,DMS-114,> 100 µM (inactive)
same,GI50,DMS-273,> 100 µM (inactive)
same,GI50,HCC 2998,> 100 µM (inactive)
same,GI50,HCT-116,> 100 µM (inactive)
same,GI50,HL-60,> 100 µM (inactive)
same,GI50,HOP-62,> 100 µM (inactive)
same,GI50,HOP-92,> 100 µM (inactive)
same,GI50,IGROV-1,> 100 µM (inactive)
same,GI50,K562,> 100 µM (inactive)
same,GI50,LXFL 529,> 100 µM (inactive)
same,GI50,M14,> 100 µM (inactive)
same,GI50,M19-MEL,> 100 µM (inactive)
same,GI50,MOLT-4,> 100 µM (inactive)
same,GI50,Malme-3M,> 100 µM (inactive)
same,GI50,NCI-H226,> 100 µM (inactive)
same,GI50,NCI-H23,> 100 µM (inactive)
same,GI50,NCI-H522,> 100 µM (inactive)
same,GI50,OVCAR-4,> 100 µM (inactive)
same,GI50,RPMI-8226,> 100 µM (inactive)
same,GI50,RXF 631,> 100 µM (inactive)
same,GI50,SF-268,> 100 µM (inactive)
same,GI50,SF-539,> 100 µM (inactive)
same,GI50,SK-MEL-28,> 100 µM (inactive)
same,GI50,SK-MEL-2,> 100 µM (inactive)
same,GI50,SK-OV-3,> 100 µM (inactive)
same,GI50,SNB-75,> 100 µM (inactive)
same,GI50,SNB-78,> 100 µM (inactive)
same,GI50,SR,> 100 µM (inactive)
same,GI50,UACC-62,> 100 µM (inactive)
same,GI50,UO-31,> 100 µM (inactive)
